Patent publication US20200255492A1, “LEPTIN PEPTIDES AND THEIR USE FOR TREATING NEUROLOGICAL DISORDERS” (UNIVERSITY OF DUNDEE, priority 2017, published 2020)

What was measured:
[1] = test system: juvenile hippocampal slices; assay: Subthreshold LFS: Aβ1-42-induced LTD; format: cell-based, Sprague Dawley rats; details: for basal synaptic transmission: 10 nM; for synaptic transmission after LFS (magnitude of Aβ1-42-induced LTD): 10 nM plus Aβ1-42
Experimental: (§1) Parasagittal hippocampal slices (300 μm) were prepared from either P13-21 or 12-24-week-old male Sprague Dawley rats as previously (Moult et al. 2010). Brains were rapidly removed and placed in ice-cold artificial CSF (aCSF; bubbled with 95% O2 and 5% CO2) containing the following (in mm): 124 NaCl, 3 KCl, 26 NaHCO3, 1.25 NaH2PO4, 2 CaCl2, 1 MgSO4, and 10 d-glucose. Once prepared, parasagittal slices were allowed to recover at room temperature in oxygenated aCSF for 1 h before use. Slices were transferred to a submerged chamber maintained at room temperature and perfused with artificial cerebrospinal fluid at 2 ml min^−1. Standard extracellular recordings were used to monitor evoked field excitatory postsynaptic potentials (fEPSP) from stratum radiatum. The Schaffer collateral-commissural pathway was stimulated (constant voltage; 0.1 ms) at 0.033 Hz, using a stimulus intensity that evoked a peak amplitude ˜50% of the maximum. Synaptic potentials were low pass filtered at 2 kHz and digitally sampled at 10 kHz. The fEPSP slope was measured and expressed relative to baseline. Synaptic records are the average of 4 consecutive responses and stimulus artefacts are blanked for clarity. Recordings were made using an Axopatch 200B amplifier and analyzed using LTP v2.4 software. In synaptic plasticity studies, the degree of potentiation was calculated 30-35 min after HFS and expressed as a percentage of baseline±standard error of mean (SEM).
It is known that oligomeric Aβ promotes the induction of LTD (Shankar et al. 2008) and that exposure to a low concentration of leptin (10 nM) prevents facilitation of hippocampal LTD by Aβ1-42 (Doherty et al. 2013). Thus we assessed if either of the leptin fragments mirror leptin action. Initially we verified that leptin prevented Aβ1-42-induced LTD. […] Furthermore, leptin (10 nM) reduced the magnitude of Aβ1-42-induced LTD such that LFS depressed synaptic transmission to 101±5.3% of baseline in leptin-treated slices (n=4; P>0.05; FIG. 4B). To establish if the leptin fragments mirrored leptin action the effects of leptin (116-130) or leptin (22-56) were also examined.

[2] = test system: SH-SY5Y neuronal cultures; assay: Thioflavin S staining of amyloid after seeding with Aβ1-42; format: cell-based, human; details: 96 hours after seeding with 1 μM Aβ1-42; leptin116-130 1 nM
Experimental: The human neuroblastoma cell line, SH-SY5Y (ECACC, UK) was maintained in Dulbecco's Modified Eagle Medium supplemented with glucose ([…]) and 10% (v/v) cosmic calf serum (Fisher Scientific, UK) at 37° C. in a humidified atmosphere of 5% CO2, 95% air and allowed to reach 70-80% confluence before seeding. Cells (passage 10-18) were plated at 2×10^5 cells on 13 mm borosilicate class coverslips or at 10 000 cells per well in 96 well tissue culture plates (Nunc, VWR, UK) prior to treatment. Reagents used were (from Sigma UK unless stated) 1 nM human leptin, leptin (116-121), leptin (117-122) and leptin (117-125); 0.0001-1 nm murine leptin fragments leptin (116-121), leptin (117-122) and leptin (116-130); 100 μM 6-hydroxydopamine; 10 μM CuCl2; […]
After 96 hours, cultures were fixed for 15 minutes in neutral buffered formalin, washed in phosphate buffered saline and stained with 0.05% Thioflavin S for 10 minutes prior to washing in phosphate buffered saline and mounting for visualisation on a fluorescent microscope. Relative fluorescent intensity per cell was determined using post hoc image analysis with Fiji software. Quantitative data is presented as the mean fluorescence per cell relative to control untreated cells.

[3] = test system: juvenile hippocampal slices (P13-21); assay: Primed burst stimulation: conversion of STP into persistent increase in synaptic transmission (fEPSP); format: cell-based, Sprague Dawley rats; details: 50 nM, at 40 min
Experimental: as §1
It is known that NMDA receptors contribute little to basal excitatory synaptic transmission but synaptic activation of NMDA receptors is crucial for LTP induction at hippocampal synapses (Bliss and Collingridge 1993). Previous studies indicate that lep-tin enhances the magnitude of activity-dependent LTP in acute hippocampal slices (Oomura et al. 2006) and following direct administration into the hippocampus in vivo (Wayner et al. 2004). We have also shown that leptin facilitates NMDA receptor-dependent synaptic plasticity as leptin promotes conversion of short term potentiation (STP) to hippocampal LTP (Shanley et al. 2001). […]

| Substance | synaptic transmission after subthreshold LFS (LTD), Aβ1-42 alone ([1]; vehicle-treated slices 94±5.6%) | thioflavin S fluorescent signal per cell (amyloid accumulation) [2] | synaptic transmission after primed burst stimulation [3] | basal synaptic transmission [1] | synaptic transmission after LFS (magnitude of Aβ1-42-induced LTD) [1] |
| --- | --- | --- | --- | --- | --- |
| Aβ1-42: amyloid beta 1-42, toxin used in the AD models [reference compound] | 73±3.8 % of baseline |  |  |  |  |
| CSLPQT (listed as Mus musculus) [leptin (117-122)] |  | prevent the accumulation of amyloid beta |  |  |  |
| SCSLPQ (listed as Mus musculus) [leptin (116-121)] |  | prevent the accumulation of amyloid beta |  |  |  |
| SCSLPQTSGLQKPES (listed as Mus musculus) [leptin (116-130)] |  | amyloid propagation following seeding is greatly reduced | 143±6.4 % of baseline | no significant effect on basal synaptic transmission | 94±5.2 % of baseline |
| leptin (22-56): leptin fragment amino acids 22-56 (Bachem), comparison fragment (VPIQKVQDDTKTLIKTIVTRINDISHTQSVSSKQK; UniProt P41159 22-56, looked up, fragment) [reference compound] |  |  | only STP was observed | no significant effect on basal synaptic transmission | 73±4.0 % of baseline |
| leptin: the metabolic hormone leptin, whole (full length) leptin molecule; human leptin from Sigma in SH-SY5Y work |  |  | 155±6.1 % of baseline |  | 101±5.3 % of baseline |
